From patent publication US11427808B2, “Method for serum-free culture of chondrocytes and serum-free culture medium” (Regenesis Science Co., Ltd., priority 2014, dated 2022)

System: primary human chondrocytes
Assay: serum-free culture of human chondrocytes, cell proliferation
Format: cell-based
Settings: for proliferation of cultured chondrocytes (number of cells): 4th, 7th, 14th and 21st day
Experimental: Primary human chondrocytes were isolated from a fresh sample of articular cartilage, and the sample was fractionated. The obtained fractionated sample was then immersed in a 0.1% to 0.3% collagenase solution, and subjected to enzymatic digestion at 37° C. for 4 to 5 hours. The obtained cells were collected by centrifugation for 5 minutes at 1,200 rpm. A mixture obtained by adding 100 ng/mL FGF, 0.5 μM SAG, 400 ng/mL HC, 5 ng/mL IGF, and 5 μg/mL insulin to DMEM medium was used as a culture medium. The cultured cells previously obtained were seeded at a density of 1000 cells/cm^2 and cultured in an environment of 37° C. and 5% CO2. A mixture obtained by adding 100 ng/mL FGF2, 0.5 μM SAG, 400 ng/mL HC, 5 ng/mL IGF and 5 μg/mL insulin to DMEM medium was used as a culture medium for subculture. The cultured cells in Example 1 were seeded at a density of 10000 cells/cm^2 and cultured in an environment of 37° C. and 5% CO2. In order to examine the optimum concentration of SAG added to a culture medium, the concentration of SAG in a serum-free culture medium was changed to 0.05 uM, 0.01 uM or 0.5 uM, and an influence on proliferation of cultured chondrocytes was examined. Specifically, chondrocytes prepared in the same procedure as in Example 1 were seeded at a density of 10000 cells/well, and the number of cells on the 4th, 7th, 14th and 21st day after seeding was measured. Because SAG is a very expensive reagent, it is preferred that SAG be able to be used at as low concentration as possible. […] Specifically, the concentration of SAG in a serum-free culture medium to which ITS had been added was changed to 0.01 uM, 0.05 uM, 0.1 uM or 0.5 uM, and the cultured chondrocytes were cultured, and the number of cells on the 4th, 7th, 14th and 21st day after seeding was measured. In order to further examine the effect of ITS and SAG on an increase in chondrocytes, an increase in chondrocytes was examined in treated sites to which both ITS and SAG were added (ITS+ 0.01 uM SAG, ITS+ 0.1 uM SAG), a treated site to which ITS was added alone (ITS+ SAG−), and a treated site to which ITS and SAG were not added (ITS− SAG−).

SMILES: CNC1CCC(N(Cc2cccc(-c3ccncc3)c2)C(=O)c2sc3ccccc3c2Cl)CC1 (stereo not drawn) [SAG]
- culture of chondrocytes (Comparative Example 1: primary culture as Example 1 but DMEM medium not containing SAG, first to 5th day, FIG. 3): chondrocytes could not be effectively cultured in the state without SAG
- culture of chondrocytes (Comparative Example 2: subculture as Example 2 but DMEM medium not containing SAG, first to 13th day, FIG. 7): chondrocytes could not be effectively cultured in the state which does not contain SAG
- effect on proliferation of chondrocytes (ITS+ 0.01 uM SAG, ITS+ 0.1 uM SAG, FIG. 14): an obvious effect can be obtained by combining SAG
- proliferation of cultured chondrocytes (number of cells) (SAG 0.01 uM to 0.5 uM added along with ITS, FIG. 13): an increase in chondrocytes was almost equally observed
- proliferation of cultured chondrocytes (number of cells) (SAG 0.05 uM, 0.01 uM or 0.5 uM in serum-free culture medium, no ITS, FIG. 12): an obvious difference which had been expected was not observed

SMILES: O=C1O[C@H]([C@@H](O)CO)C(O)=C1O [ascorbic acid]
- effect on culture of chondrocytes in a serum-free culture medium (Example 1: 50 μg/mL ascorbic acid added on the 18th day of culture): very effective
- effect on culture of chondrocytes in a serum-free culture medium (Example 2 (subculture): 50 μg/mL ascorbic acid added on the 18th day of culture): very effective

SMILES: O=C(O)c1ccccc1C(=O)Nc1ccc(-c2ccccc2)cc1 [kartogenin, 2-[(biphenyl-4-yl)carbamoyl] benzoic acid]
- effect on proliferation of chondrocytes (ITS+ 1 uM Kartogenin): the effect on proliferation of chondrocytes was observed
- proliferation of chondrocytes (kartogenin added in place of SAG): effective for the proliferation of chondrocytes
